According to article PMC3265452 (PLoS Neglected Tropical Diseases, 2012):
Counter-ions that a name gives are not always drawn.

Target: AaDOP2 (Aedes aegypti, UniProt H6D5H2)
Test: AaDOP2 antagonist screen of the LOPAC1280 library (HEK-CRELuc-Aadop2 cells, luminescence)
Type: cell-based
Conditions: not given

Chain of AaDOP2 (H6D5H2 1-476): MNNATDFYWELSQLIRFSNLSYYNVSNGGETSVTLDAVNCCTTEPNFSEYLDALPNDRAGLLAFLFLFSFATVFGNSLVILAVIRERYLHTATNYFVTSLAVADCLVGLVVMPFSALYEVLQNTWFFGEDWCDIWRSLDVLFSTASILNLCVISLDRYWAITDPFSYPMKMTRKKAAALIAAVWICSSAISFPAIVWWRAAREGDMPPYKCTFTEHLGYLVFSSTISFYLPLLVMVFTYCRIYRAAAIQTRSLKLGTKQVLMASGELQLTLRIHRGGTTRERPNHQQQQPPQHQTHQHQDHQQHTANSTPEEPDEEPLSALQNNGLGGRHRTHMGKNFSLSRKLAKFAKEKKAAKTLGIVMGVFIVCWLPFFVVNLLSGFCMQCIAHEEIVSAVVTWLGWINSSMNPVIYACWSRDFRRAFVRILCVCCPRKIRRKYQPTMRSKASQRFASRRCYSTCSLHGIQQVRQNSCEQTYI

Compound	Compound effect (percent receptor signaling in presence of test compound, relative lux units relative to the SCH23390 control)
C[C@]12CCC(=O)C=C1CC[C@@H]1[C@@H]2CC[C@]2(C)C(=O)CC[C@@H]12 [Compound 108, 4-Androstene-3,17-dione]	115
COc1cc(NS(C)(=O)=O)ccc1Nc1c2ccccc2nc2ccccc12 [Compound 112, Amsacrine hydrochloride]	97
CN(Cc1cnc2nc(N)nc(N)c2n1)c1ccc(C(=O)N[C@@H](CCC(=O)O)C(=O)O)cc1 [Compound 114, (-)Amethopterin]	116
COc1ccc(C(=O)N2CCCC2=O)cc1 [Compound 116, Aniracetam]	101
CCn1c(=O)c2[nH]c(-c3ccccc3)nc2n(CC)c1=O [Compound 117, 1,3-Diethyl-8-phenylxanthine]	105
Cn1c(=O)c2[nH]c(-c3ccc(S(=O)(=O)O)cc3)nc2n(C)c1=O [Compound 118, 8-(p-Sulfophenyl)theophylline]	98
CCCn1c(=O)c2[nH]c(-c3ccc(S(=O)(=O)O)cc3)nc2n(CCC)c1=O [Compound 119, 1,3-Dipropyl-8-p-sulfophenylxanthine]	91
NCCNC(=O)Cc1ccc(NC(=O)Cc2ccc(Nc3ncnc4c3ncn4[C@@H]3O[C@H](CO)[C@@H](O)[C@H]3O)cc2)cc1 [Compound 122, Adenosine amine congener]	105
CN1[C@@H]2CC[C@H]1C[C@@H](OC(c1ccccc1)c1ccccc1N)C2 (stereo partly drawn) [Compound 125, Aminobenztropine]	30
C#CCOC(=O)C1=CCCN(C)C1 [Compound 126, Arecaidine propargyl ester hydrobromide]	85
C=CCn1c(=O)c2c(nc(-c3ccc(S(=O)(=O)O)cc3)n2C)n(C)c1=O [Compound 129, 1-Allyl-3,7-dimethyl-8-p-sulfophenylxanthine]	100
Cl.NC1(C(=O)O)CCCCC1 [Compound 132, 1-Amino-1-cyclohexanecarboxylic acid hydrochloride]	110
CC(N)C(=O)OC(C)(C)Cc1ccc(Cl)cc1 (stereo not drawn) [Compound 133, Alaproclate hydrochloride]	110
CCN(CC)CC.Nc1ncnc2c1ncn2C1OC2COP(O)(=S)O[C@@H]2[C@@H]1O (stereo partly drawn) [Compound 134, Rp-cAMPS triethylamine]	67
N[C@H](CCCCCP(=O)(O)O)C(=O)O [Compound 136, D(-)-2-Amino-7-phosphonoheptanoic acid]	102
CC(=O)c1ccc(S(=O)(=O)NC(=O)NC2CCCCC2)cc1 [Compound 137, Acetohexamide]	115
CP(=O)(O)CCCN.Cl [Compound 138, SKF 97541 hydrochloride]	101
NC/C=C\C(=O)O [Compound 139, cis-4-Aminocrotonic acid]	95
Nc1ccc(CCNc2ncnc3c2ncn3[C@@H]2O[C@H](CO)[C@@H](O)[C@H]2O)cc1 [Compound 140, N6-2-(4-Aminophenyl)ethyladenosine]	97

Compound	Compound effect (percent receptor signaling in presence of test compound, relative lux units relative to the SCH23390 control)
CC1=C[C@@H]2c3cccc4[nH]cc(c34)C[C@H]2N(C)C1 [Compound 141, Agroclavine]	98
O=c1nc2[nH]c3ccccc3nc-2c(=O)[nH]1 [Compound 144, Alloxazine]	104
O=C(O)[C@@H]1C[C@H](C(=O)O)N1 [Compound 145, cis-Azetidine-2,4-dicarboxylic acid]	112
NC1(C(=O)O)CCc2cc(C(=O)O)ccc21 (stereo not drawn) [Compound 148, AIDA]	95
CC(C)(C)c1o[nH]c(=O)c1CC(N)C(=O)O (stereo not drawn) [Compound 150, ATPA]	101
CC(=O)C(C)=NO [Compound 153, 2,3-Butanedione monoxime]	131
CC[C@H](NC(=O)c1c(C)c(-c2ccccc2)nc2ccccc12)c1ccccc1 [Compound 154, SB 222200]	92
COc1ccc2c(c1)c(CC(=O)O)c(C)n2C(=O)c1ccccc1 [Compound 155, 1-benzoyl-5-methoxy-2-methylindole-3-acetic acid]	105
O=C1C=CC(=O)C=C1 [Compound 156, p-Benzoquinone]	96
O=S(=O)(NCCNC/C=C/c1ccc(Br)cc1)c1cccc2cnccc12 [Compound 158, H-89]	46
O=C1O/C(=C/Br)CCC1c1cccc2ccccc12 (stereo not drawn) [Compound 159, Bromoenol lactone]	103
NC(=O)c1ccccc1 [Compound 160, Benzamide]	100
O=[N+]([O-])c1cccc2c(Br)n[nH]c12 [Compound 161, 3-Bromo-7-nitroindazole]	83
CC(C)C[C@H]1C(=O)N2CCC[C@H]2[C@]2(O)O[C@](NC(=O)[C@@H]3C=C4c5cccc6[nH]c(Br)c(c56)C[C@H]4N(C)C3)(C(C)C)C(=O)N12.CS(=O)(=O)O [Compound 162, (+)-Bromocriptine methanesulfonate]	37
Nc1nc(OCc2ccccc2)c2nc[nH]c2n1 [Compound 163, O6-benzylguanine]	80
NC(=NCc1ccccc1)NC(=O)c1nc(Cl)c(N)nc1N [Compound 166, Benzamil hydrochloride]	60
CCCCS(=N)(=O)CC[C@H](N)C(=O)O (stereo partly drawn) [Compound 167, L-Buthionine-sulfoximine]	81
C[N+](C)(C)CC(=O)O [Compound 170, Betaine hydrochloride]	86

Same assay, conditions: 10 µM compound, 300 nM dopamine, 2 hr; hit = compound effect <20

Compound	Compound effect (percent receptor signaling in presence of test compound, relative lux units relative to the SCH23390 control) [%]
Cl.c1ccc(CN(CC2=NCCN2)c2ccccc2)cc1 [Compound 115, Antozoline hydrochloride]	115
CNC(=O)[C@H]1O[C@@H](n2cnc3c(N)ncnc32)[C@H](O)[C@@H]1O [Compound 121, 5'-N-Methyl carboxamidoadenosine]	114
Cl.Cn1ccc2cc(NC(=O)Nc3cccnc3)ccc21 [Compound 135, SB 200646 hydrochloride]	106
C#CC(N)CCC(=O)O (stereo not drawn) [Compound 142, gamma-Acetylinic GABA]	104
CNC(=O)[C@H]1O[C@@H](n2cnc3c(NCc4ccc(N)cc4)ncnc32)[C@H](O)[C@@H]1O [Compound 143, AB-MECA]	100
CC(C)C1C2CCC(C2)C1N.Cl (stereo not drawn) [Compound 147, AGN 192403 hydrochloride]	109
Cl.NC[C@@H]1O[C@H](C23CC4CC(CC(C4)C2)C3)Cc2c1ccc(O)c2O [Compound 149, A-77636 hydrochloride]	113
CCN(CC)c1ncnc2c1ncn2[C@@H]1O[C@H](COP(=O)([O-])OP(=O)([O-])C(Br)(Br)P(=O)([O-])O)[C@@H](O)[C@H]1O.[Na+].[Na+].[Na+] [Compound 151, ARL 67156 trisodium salt]	115
C[C@H]1C[C@H]2[C@@H]3CCC4=CC(=O)C=C[C@]4(C)[C@@]3(Cl)[C@@H](O)C[C@]2(C)[C@@]1(O)C(=O)CO [Compound 152, Beclomethasone]	97
Nc1nc2c(nc(Br)n2[C@@H]2O[C@@H]3COP(=O)([O-])O[C@H]3[C@H]2O)c(=O)[nH]1.[Na+] [Compound 157, 8-Bromo-cGMP sodium]	117
CC(=O)NBr [Compound 164, N-Bromoacetamide]	104
